In US6737383B1, “Herbicidal oxadiazolidines” (priority 1999, dated 2004):

Columns and labels:
bedstraw = test: Test B pre/postemergence bedstraw; assay type: in vivo, Galium aparine
Outline: (§1)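 Response is a visual 0-to-10 score relative to untreated plants, where 0 means no effect and 10 means complete control, taken twelve to sixteen days after application. Treatments went onto soil at planting and onto foliage of 1- to 4-leaf plants, using a surfactant-containing non-phytotoxic solvent.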

rice = test: Test B flood test rice; assay type: in vivo, Oryza sativa
Method: At the same time, these crop and weed species were also treated with postemergence applications of test chemicals formulated in the same manner. Plants ranged in height from 2 to 18 cm (1- to 4-leaf stage) for postemergence treatments. Plant species in the flood test consisted of rice (Oryza sativa), smallflower flatsedge (Cyperus difformis), duck salad (Heteranthera limosa) and bamyardgrass (Echinochloa crus-galli) grown to the 2-leaf stage for testing. Treated plants and controls were maintained in a greenhouse for twelve to sixteen days, after which all species were compared to controls and visually evaluated. Plant response ratings, summarized in Table B, are based on a scale of 0 to 10 where 0 is no effect and 10 is complete control. A dash (−) response means no test result.

giant foxtail = test: Test B pre/postemergence giant foxtail; assay type: in vivo, Setaria faberii
Outline: as §1

crabgrass = test: Test B pre/postemergence crabgrass; assay type: in vivo, Digitaria sanguinalis
Outline: as §1

corn = test: Test B pre/postemergence corn; assay type: in vivo, Zea mays
Outline: as §1

velvetleaf = test: Test B pre/postemergence velvetleaf; assay type: in vivo, Abutilon theophrasti
Outline: as §1

duck salad = test: Test B flood test duck salad; assay type: in vivo, Heteranthera limosa
Outline: (§2)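 Flood test on plants grown to the 2-leaf stage; treated plants kept in greenhouse twelve to sixteen days, then visually rated against controls on a 0 (no effect) to 10 (complete control) scale.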

pigweed = test: Test B pre/postemergence pigweed; assay type: in vivo, Amaranthus retroflexus
Outline: as §1

morningglory = test: Test B pre/postemergence morningglory; assay type: in vivo, Ipomoea hederacea
Outline: as §1

wheat = test: Test B pre/postemergence wheat; assay type: in vivo, Triticum aestivum
Outline: as §1

soybean = test: Test B pre/postemergence soybean; assay type: in vivo, Glycine max
Outline: as §1

rape = test: Test B pre/postemergence rape; assay type: in vivo, Brassica napus
Outline: as §1

purple nutsedge = test: Test B pre/postemergence purple nutsedge; assay type: in vivo, Cyperus rotundus
Outline: as §1

blackgrass = test: Test B pre/postemergence blackgrass; assay type: in vivo, Alopecurus myosuroides
Outline: as §1

surinam grass = test: Test B pre/postemergence surinam grass; assay type: in vivo, Brachiaria decumbens
Outline: as §1

sugar beet = test: Test B pre/postemergence sugar beet; assay type: in vivo, Beta vulgaris
Outline: as §1

cocklebur = test: Test B pre/postemergence cocklebur; assay type: in vivo, Xanthium strumarium
Outline: as §1

wild oat = test: Test B pre/postemergence wild oat; assay type: in vivo, Avena fatua
Outline: as §1

smallflower flatsedge = test: Test B flood test smallflower flatsedge; assay type: in vivo, Cyperus difformis
Outline: as §2

bamyardgrass = test: Test B flood test barnyardgrass; assay type: in vivo, Echinochloa crus-galli
Outline: as §2

[1] = Postemergence, Rate 62 g/ha, scale 0 to 10, 0 is no effect, 10 is complete control
[2] = Postemergence, Rate 250 g/ha, scale 0 to 10, 0 no effect, 10 complete control
[3] = Preemergence, Rate 62 g/ha, scale 0 to 10, 0 is no effect, 10 is complete control
[4] = Preemergence, Rate 125 g/ha, scale 0 to 10 (0 no effect, 10 complete control)
[5] = Preemergence, Rate 250 g/ha, scale of 0 to 10 where 0 is no effect and 10 is complete control
[6] = Preemergence, Rate 500 g/ha, scale 0 (no effect) to 10 (complete control)
[7] = Rate 125 g/ha, Postemergence, scale 0 to 10, 0 no effect, 10 complete control
[8] = Rate 125 g/ha, Postemergence section (flood test species), scale 0 to 10, 0 no effect, 10 complete control
[9] = Rate 500 g/ha, Postemergence, scale 0 to 10, 0 no effect, 10 complete control
[10] = Rate 500 g/ha, listed under Postemergence (flood test species), scale 0 to 10, 0 no effect, 10 complete control
[11] = flood test, listed under Postemergence, Rate 250 g/ha, scale 0 to 10, 0 no effect, 10 complete control
[12] = Rate 62 g/ha, flood test species, Pre-emergence, visual evaluation after twelve to sixteen days
[13] = Rate 125 g/ha, Pre-emergence, flood test species, scale 0 to 10 where 0 is no effect and 10 is complete control
[14] = Rate 250 g/ha, Pre-emergence, flood-test species, scale 0 to 10, 0 is no effect, 10 is complete control
[15] = Rate 500 g/ha, Pre-emergence, flood test species, scale 0 to 10 (0 no effect, 10 complete control)

COc1ccc(N(C(=O)n2oc(=O)n(-c3ccccc3C)c2=O)C(C)C)cc1 [Compound 49]
7: Plant response rating, Crabgrass (crabgrass; [4])
4: Giant foxtail plant response rating (giant foxtail; [7])
0: Bedstraw plant response rating (bedstraw; [1]) | Plant response rating, Bedstraw (bedstraw; [3]) | Plant response rating, Bedstraw (bedstraw; [4]) | Plant response rating, Bedstraw (bedstraw; [5]) | Bedstraw plant response rating (bedstraw; [6]) | Bedstraw plant response rating (bedstraw; [7]) | Rice plant response rating (rice; [8]) | Crabgrass plant response rating (crabgrass; [1]) | Corn plant response rating (corn; [1]) | Corn plant response rating (corn; [2]) | Plant response rating, Corn (corn; [3]) | Plant response rating, Corn (corn; [4]) | Plant response rating, Corn (corn; [5]) | Corn plant response rating (corn; [6]) | Corn plant response rating (corn; [7]) | Corn plant response rating (corn; [9]) | Velvetleaf plant response rating (velvetleaf; [1]) | Velvetleaf plant response rating (velvetleaf; [2]) | Plant response rating, Velvetleaf (velvetleaf; [3]) | Plant response rating, Velvetleaf (velvetleaf; [4]) | Plant response rating, Velvetleaf (velvetleaf; [5]) | Velvetleaf plant response rating (velvetleaf; [6]) | Velvetleaf plant response rating (velvetleaf; [7]) | Velvetleaf plant response rating (velvetleaf; [9]) | Ducksalad plant response rating (duck salad; [8]) | Redroot pigweed plant response rating (pigweed; [1]) | Redroot pigweed plant response rating (pigweed; [2]) | Plant response rating, Redroot pigweed (pigweed; [3]) | Plant response rating, Redroot pigweed (pigweed; [4]) | Plant response rating, Redroot pigweed (pigweed; [5]) | Redroot pigweed plant response rating (pigweed; [6]) | Redroot pigweed plant response rating (pigweed; [7]) | Redroot pigweed plant response rating (pigweed; [9]) | Morningglory plant response rating (morningglory; [1]) | Morningglory plant response rating (morningglory; [2]) | Plant response rating, Morningglory (morningglory; [3]) | Plant response rating, Morningglory (morningglory; [4]) | Plant response rating, Morningglory (morningglory; [5]) | Morningglory plant response rating (morningglory; [6]) | Morningglory plant response rating (morningglory; [7]) | Wheat plant response rating (wheat; [1]) | Wheat plant response rating (wheat; [2]) | Plant response rating, Wheat (wheat; [3]) | Plant response rating, Wheat (wheat; [4]) | Plant response rating, Wheat (wheat; [5]) | Wheat plant response rating (wheat; [6]) | Wheat plant response rating (wheat; [7]) | Wheat plant response rating (wheat; [9]) | Plant response rating, Soybean (soybean; [3]) | Plant response rating, Soybean (soybean; [4]) | Plant response rating, Soybean (soybean; [5]) | Soybean plant response rating (soybean; [6]) | Rape plant response rating (rape; [1]) | Rape plant response rating (rape; [2]) | Plant response rating, Rape (rape; [3]) | Plant response rating, Rape (rape; [4]) | Plant response rating, Rape (rape; [5]) | Rape plant response rating (rape; [6]) | Rape plant response rating (rape; [7]) | Rape plant response rating (rape; [9]) | Nutsedge plant response rating (purple nutsedge; [1]) | Nutsedge plant response rating (purple nutsedge; [2]) | Plant response rating, Nutsedge (purple nutsedge; [3]) | Plant response rating, Nutsedge (purple nutsedge; [4]) | Plant response rating, Nutsedge (purple nutsedge; [5]) | Nutsedge plant response rating (purple nutsedge; [6]) | Nutsedge plant response rating (purple nutsedge; [7]) | Nutsedge plant response rating (purple nutsedge; [9]) | Blackgrass plant response rating (blackgrass; [1]) | Blackgrass plant response rating (blackgrass; [2]) | Plant response rating, Blackgrass (blackgrass; [3]) | Plant response rating, Blackgrass (blackgrass; [4]) | Plant response rating, Blackgrass (blackgrass; [5]) | Blackgrass plant response rating (blackgrass; [6]) | Blackgrass plant response rating (blackgrass; [7]) | Blackgrass plant response rating (blackgrass; [9]) | B. signalgrass plant response rating (surinam grass; [1]) | B. signalgrass plant response rating (surinam grass; [2]) | Plant response rating, B. signalgrass (surinam grass; [3]) | Plant response rating, B. signalgrass (surinam grass; [4]) | Plant response rating, B. signalgrass (surinam grass; [5]) | B. signalgrass plant response rating (surinam grass; [6]) | B. signalgrass plant response rating (surinam grass; [7]) | B. signalgrass plant response rating (surinam grass; Rate 500 g/ha, Postemergence, scale of 0 to 10 where 0 is no effect and 10 is complete control) | Sugarbeets plant response rating (sugar beet; [1]) | Sugarbeets plant response rating (sugar beet; [2]) | Plant response rating, Sugarbeets (sugar beet; [3]) | Plant response rating, Sugarbeets (sugar beet; [4]) | Plant response rating, Sugarbeets (sugar beet; [5]) | Sugarbeets plant response rating (sugar beet; [6]) | Sugarbeets plant response rating (sugar beet; [7]) | Sugarbeets plant response rating (sugar beet; [9]) | Cocklebur plant response rating (cocklebur; [1]) | Cocklebur plant response rating (cocklebur; [2]) | Plant response rating, Cocklebur (cocklebur; [3]) | Plant response rating, Cocklebur (cocklebur; [4]) | Plant response rating, Cocklebur (cocklebur; [5]) | Cocklebur plant response rating (cocklebur; [6]) | Cocklebur plant response rating (cocklebur; [7]) | Cocklebur plant response rating (cocklebur; [9]) | Wild oats plant response rating (wild oat; [1]) | Wild oats plant response rating (wild oat; [2]) | Plant response rating, Wild oats (wild oat; [4]) | Plant response rating, Wild oats (wild oat; [5]) | Wild oats plant response rating (wild oat; [6]) | Wild oats plant response rating (wild oat; [7]) | Wild oats plant response rating (wild oat; [9])
9: Giant foxtail plant response rating (giant foxtail; [2]) | Giant foxtail plant response rating (giant foxtail; [9]) | Plant response rating, Crabgrass (crabgrass; [5]) | Crabgrass plant response rating (crabgrass; [6]) | Crabgrass plant response rating (crabgrass; [9])
5: Bedstraw plant response rating (bedstraw; [2])
3: Morningglory plant response rating (morningglory; [9])
10: Plant response rating, Giant foxtail (giant foxtail; [5]) | Giant foxtail plant response rating (giant foxtail; [6])
8: Plant response rating, Giant foxtail (giant foxtail; [3]) | Plant response rating, Giant foxtail (giant foxtail; [4]) | Crabgrass plant response rating (crabgrass; [2])
1: Giant foxtail plant response rating (giant foxtail; [1]) | Crabgrass plant response rating (crabgrass; [7]) | Soybean plant response rating (soybean; [1]) | Soybean plant response rating (soybean; [2]) | Soybean plant response rating (soybean; [7]) | Soybean plant response rating (soybean; [9])
2: Plant response rating, Crabgrass (crabgrass; [3])

CCN(CC)C(=O)n1oc(=O)n(Cc2ccccc2C)c1=O [Compound 84]
0: Rice plant response rating (rice; [1]) | Rice plant response rating (rice; [8]) | Rice plant response rating (rice; [10]) | Rice plant response rating (rice; [11]) | Ducksalad plant response rating (duck salad; [1]) | Ducksalad plant response rating (duck salad; [8]) | Ducksalad plant response rating (duck salad; [10]) | Ducksalad plant response rating (duck salad; [11]) | S. Flatsedge plant response rating (smallflower flatsedge; [1]) | S. Flatsedge plant response rating (smallflower flatsedge; [8]) | S. Flatsedge plant response rating (smallflower flatsedge; [10]) | S. Flatsedge plant response rating (smallflower flatsedge; [11]) | Barnyardgrass plant response rating (bamyardgrass; [1]) | Barnyardgrass plant response rating (bamyardgrass; [8]) | Barnyardgrass plant response rating (bamyardgrass; [10]) | Barnyardgrass plant response rating (bamyardgrass; [11])

CC(C)N(C(=O)n1oc(=O)n(Cc2cccnc2)c1=O)c1ccc(F)cc1 [Compound 366]
0: Plant response rating, Rice (0 to 10 scale, 0 is no effect, 10 is complete control) (rice; [12]) | Rice plant response rating (rice; [13]) | Rice plant response rating (rice; [14]) | Rice plant response rating (rice; [15]) | Plant response rating, Ducksalad (0 to 10 scale, 0 is no effect, 10 is complete control) (duck salad; [12]) | Ducksalad plant response rating (duck salad; [13]) | Ducksalad plant response rating (duck salad; [14]) | Ducksalad plant response rating (duck salad; [15]) | Plant response rating, S. Flatsedge (0 to 10 scale, 0 is no effect, 10 is complete control) (smallflower flatsedge; [12]) | S. Flatsedge plant response rating (smallflower flatsedge; [13]) | S. Flatsedge plant response rating (smallflower flatsedge; [14]) | S. Flatsedge plant response rating (smallflower flatsedge; [15]) | Plant response rating, Barnyardgrass (0 to 10 scale, 0 is no effect, 10 is complete control) (bamyardgrass; [12]) | Barnyardgrass plant response rating (bamyardgrass; [13]) | Barnyardgrass plant response rating (bamyardgrass; [14]) | Barnyardgrass plant response rating (bamyardgrass; [15])
